In patent US7265259B2, “GSK-3β expressed in a transgenic mouse” (Consejo Superior de Investigaciones Clentificas, priority 2000, dated 2007):

System: Tet/GSK-3β mice
Experiment: Genotype frequency of double transgenic mice after prenatal doxycycline treatment (perinatal lethality)
Format: in vivo, mouse
Conditions: 14% without treatment, 25% expected
Source text: Tet/GSK-3B mice were viable and fertile and appeared normal without pharmacological intervention to suppress transgene expression. This seemed to contradict the previously postulated toxicity of increased GSK-3β expression in brain (Brownlees et al., 1997). […] The Tet/GSK-3β mice were underrepresented (14%, n=401). This might be indicative of lethality due to embryonic overexpression of GSK-3β in Tet/GSK-3β mice.
We had previously observed perinatal transgene expression and lethality in our CamKIIα-tTA driven animal model of Huntington's disease (HD94) (Yamamoto et al., 2000). In the case of HD94 mice, if pregnant mice are given the tetracycline analog doxycycline (2 mg/ml) in the drinking water ad libitum from E15 to birth, only postnatal transgenic expression takes place and the frequency of the four expected genotypes is restored to 25%. We thus decided to apply the same program of perinatal doxycycline treatment to the Tet/GSK-3B mice. […] As expected, prenatal doxycycline treatment normalized to 25% the frequency of Tet/GSK-3β mice and thus, to maximize yield of double transgenic mice in litters, the perinatal doxycycline treatment was routinely employed.

C[C@H]1c2cccc(O)c2C(=O)C2=C(O)[C@]3(O)C(=O)C(C(N)=O)=C(O)[C@@H](N(C)C)[C@@H]3[C@@H](O)[C@@H]21 [doxycycline]
frequency of Tet/GSK-3β mice: 25%
